Assay results reported in ChEMBL document CHEMBL1201862, “PubChem BioAssay data set” (2004).
Active and inactive are the calls of the source.

Legend:
[1] = biological target: COUP transcription factor 2 (Homo sapiens, UniProt P24468); assay: Luminescence-based cell-based high throughput dose response assay to identify inhibitors of COUP-TFII (NR2F2).; format: functional;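 note: HEK293 cells transiently cotransfected with COUP-TFII expression vector and reporter; luciferase reporter luminescence driven by COUP-TFII from the pX2-168 reporter plasmid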
[2] = biological target: T1, Probable nicotinate-nucleotide adenylyltransferase (Staphylococcus aureus (strain N315), UniProt P65502); format: functional, Staphylococcus aureus subsp. aureus N315;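 for IC50 Mean: confirmatory dose-response retesting of NadD inhibitor hits first found in an ultra-high-throughput screen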
[3] = NIH-3T3 fibroblast cytotoxicity, dose response, cytotoxicity control, cell-based, fluorescence, Alamar Blue, secondary assay (AID 2327); format: functional;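 note: NIH-3T3 mouse fibroblasts cultured with fluconazole at 8 µg/mL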
[4] = biological target: Disintegrin and metalloproteinase domain-containing protein 17 (Homo sapiens, UniProt P78536); assay: inhibition of ADAM17 substrate cleavage – biochemical, quenched FRET substrate, counter-screen for ADAM10 exosite inhibitor project, dose response (AID 743253)
Streptococcus = assay: GAS UMAA2166 growth inhibition – luminescence, BacTiterGlo, counter-screen for streptokinase expression inhibitor project, dose response (AID 1915); format: functional, organism-based;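 note: potency for reduction of bacterial viability or growth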
Streptokinase A = biological target: T2, Streptokinase A (Streptococcus pyogenes serotype M1, UniProt P10520); assay: viability-normalized secreted streptokinase activity reduction – plasminogen activation absorbance, OD405, dose response (AID 1914); format: functional, Streptococcus pyogenes M1 GAS;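 note: secreted streptokinase activity via plasminogen activation per viability signal from cell pellet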
T2 sequence (P10520 whole entry): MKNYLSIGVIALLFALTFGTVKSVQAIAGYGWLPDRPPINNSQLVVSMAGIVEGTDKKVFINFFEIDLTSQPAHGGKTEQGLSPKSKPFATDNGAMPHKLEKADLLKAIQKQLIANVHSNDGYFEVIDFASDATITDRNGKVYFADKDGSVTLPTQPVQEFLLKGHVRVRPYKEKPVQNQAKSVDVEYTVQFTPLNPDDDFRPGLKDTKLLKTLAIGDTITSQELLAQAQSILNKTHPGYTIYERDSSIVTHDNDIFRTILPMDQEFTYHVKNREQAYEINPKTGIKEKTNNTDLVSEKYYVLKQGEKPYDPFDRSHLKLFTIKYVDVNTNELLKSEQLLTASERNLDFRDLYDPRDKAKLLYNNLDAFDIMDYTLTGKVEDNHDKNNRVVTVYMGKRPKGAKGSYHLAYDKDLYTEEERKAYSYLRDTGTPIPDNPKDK

[5] = biological target: T1, Probable nicotinate-nucleotide adenylyltransferase; format: functional, Staphylococcus aureus subsp. aureus N315; settings: read-out: IC50_Mean
[6] = test system: Streptococcus sp. 'group A'; assay: Streptococcus pyogenes SK(-)GAS viability under kanamycin – luminescence, BacTiterGlo, confirmation, counter-screen for streptokinase expression inhibitor project, dose response (AID 1900); format: functional, organism-based
[7] = fluconazole-exposed Candida albicans growth modulators – fluorescence, retest, confirmation (AID 2467); format: functional, cell-based
[8] = biological target: T3, Oxysterols receptor LXR-beta (Homo sapiens, UniProt P55055); format: functional, cell-based;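 note: agonist activity at LXR measured by a cell-based luminescence readout across a dose range, run as a counterscreen for daf-12 agonists; HEK293 cells with Gal4-LXR fusion and GAL4-driven luciferase reporter; potency for activation of Gal4-LXR reporter so compounds are agonists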
T3 sequence (P55055 whole entry): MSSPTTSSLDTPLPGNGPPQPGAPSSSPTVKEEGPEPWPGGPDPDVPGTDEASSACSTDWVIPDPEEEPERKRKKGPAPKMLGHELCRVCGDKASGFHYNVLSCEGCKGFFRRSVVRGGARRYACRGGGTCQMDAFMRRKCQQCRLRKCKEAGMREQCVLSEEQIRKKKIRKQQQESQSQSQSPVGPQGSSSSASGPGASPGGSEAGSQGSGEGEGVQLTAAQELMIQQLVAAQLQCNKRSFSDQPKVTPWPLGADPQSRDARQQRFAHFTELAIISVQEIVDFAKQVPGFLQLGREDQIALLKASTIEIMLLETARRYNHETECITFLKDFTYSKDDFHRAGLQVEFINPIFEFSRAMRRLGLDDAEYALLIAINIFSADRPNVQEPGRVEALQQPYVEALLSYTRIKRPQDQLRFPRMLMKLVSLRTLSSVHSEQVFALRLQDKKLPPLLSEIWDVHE

[9] = viability loss in HEK293 cells – cell-based, plate reader, cherry-picked samples, cytotoxicity control, dose response (AID 743446); format: functional
[10] = luciferase reporter signal suppression in cells – H4 neuroglioma cells, luminescence, dose response (AID 1990); format: functional, cell-based
[11] = blockers of bursicon-stimulated LGR2 cAMP reporter – cell-based, HEK293, CRE-luciferase reporter, cherry pick, set 2, dose response (AID 743343); format: functional;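 note: transfected cells were stimulated with diluted bursicon conditioned medium after compound addition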
[12] = biological target: T4, Heat shock factor protein 1 (Mus musculus, UniProt P38532); assay: decrease of HSF1-responsive luciferase luminescence – cell-based, NIH3T3, dose retest, confirmation (AID 2382); format: functional;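 note: NIH3T3 fibroblasts with HSF1-driven luciferase reporter stressed by proteasome inhibitor MG132; luminescence from HSF1-driven luciferase expression after 8 hours of MG132 stress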
T4 sequence (P38532 whole entry): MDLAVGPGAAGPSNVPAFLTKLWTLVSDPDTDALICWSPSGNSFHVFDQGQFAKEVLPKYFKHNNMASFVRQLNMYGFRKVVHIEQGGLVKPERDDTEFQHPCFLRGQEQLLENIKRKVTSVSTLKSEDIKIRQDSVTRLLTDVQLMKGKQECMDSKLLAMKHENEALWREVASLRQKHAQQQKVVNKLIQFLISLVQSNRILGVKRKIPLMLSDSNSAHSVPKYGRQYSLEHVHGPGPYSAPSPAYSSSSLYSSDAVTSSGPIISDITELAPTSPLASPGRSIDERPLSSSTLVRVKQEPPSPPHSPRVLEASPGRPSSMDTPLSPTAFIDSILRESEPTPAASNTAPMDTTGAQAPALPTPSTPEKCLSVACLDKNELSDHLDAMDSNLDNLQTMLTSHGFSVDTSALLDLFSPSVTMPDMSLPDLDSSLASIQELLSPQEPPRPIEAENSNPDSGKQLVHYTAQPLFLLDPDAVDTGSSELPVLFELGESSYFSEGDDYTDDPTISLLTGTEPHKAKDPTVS

[13] = A549 cell cytotoxicity, dose response, cytotoxicity control, plate reader, cherry-pick, antagonist series (AID 743412); format: functional, cell-based
[14] = Luminescence Cell-Based Dose Response HTS to Identify Inhibitors of 5'UTR Stem-Loop Driven Prion Protein mRNA Translation in H4 Neuroglioblastoma Cells. [Related pubchem assays: 1827 (Project Summary), 1813 (Primary HTS)]; format: functional
[15] = blockade of melanocortin 4 receptor signaling – cell-based, plate reader, cherry pick, counter-screen for LGR2 antagonist project, dose response (AID 743444); format: functional;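 note: transfected HEK 293 cells stimulated with alpha-MSH peptide; potency of inhibitors of the alpha-MSH evoked signal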
[16] = toxicity toward HepG2 liver cells – cell-based, plate reader, cherry-pick, antagonist series, cytotoxicity control, dose response (AID 743416); format: functional
[17] = alpha-synuclein stem-loop luciferase translation blockers – H4 neuroglioma cells, luminescence, confirmation (AID 1988); format: functional, cell-based
fMet-Leu-Phe receptor = fMet-Leu-Phe receptor (Homo sapiens, UniProt P21462); assay: formyl peptide receptor binders – dose response (AID 519); format: functional
[18] = biological target: Endoplasmic reticulum aminopeptidase 1 (Homo sapiens, UniProt Q9NZ08); assay: inhibition of human ERAP1 enzyme activity – biochemical, cherry-pick, set 2, plate reader, dose response (AID 743314)
[19] = biological target: 5-hydroxytryptamine receptor 2A (Mus musculus, UniProt P35363); format: functional, cell-based;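 note: CHO-K1 cells with tagged receptor and beta-arrestin; agonist potency measured as compound-induced activation of the receptor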
[20] = biological target: Induced myeloid leukemia cell differentiation protein Mcl-1 (Homo sapiens, UniProt Q07820); format: functional
Mu-type opioid receptor = Mu-type opioid receptor (Homo sapiens, UniProt P35372); format: functional, cell-based;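 note: U2OS cells with beta-arrestin recruitment to OPRM1 by beta-gal complementation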
[21] = general cell-killing toxicity readout – plate reader, dry powder samples, cytotoxicity control for PAX8 inhibitor project, dose response (AID 743021); format: functional, cell-based
Protein RecA = biological target: T5, Protein RecA (Mycobacterium tuberculosis, UniProt P9WHJ3); assay: Fluorescence Cell-Free Homogeneous Dose Retest to Identify Inhibitors of RecA-Intein Splicing Activity. [Related pubchem assays (depositor defined):AID2097, AID2223, AID489010, AID492950]; format: functional
T5 sequence (P9WHJ3 whole entry): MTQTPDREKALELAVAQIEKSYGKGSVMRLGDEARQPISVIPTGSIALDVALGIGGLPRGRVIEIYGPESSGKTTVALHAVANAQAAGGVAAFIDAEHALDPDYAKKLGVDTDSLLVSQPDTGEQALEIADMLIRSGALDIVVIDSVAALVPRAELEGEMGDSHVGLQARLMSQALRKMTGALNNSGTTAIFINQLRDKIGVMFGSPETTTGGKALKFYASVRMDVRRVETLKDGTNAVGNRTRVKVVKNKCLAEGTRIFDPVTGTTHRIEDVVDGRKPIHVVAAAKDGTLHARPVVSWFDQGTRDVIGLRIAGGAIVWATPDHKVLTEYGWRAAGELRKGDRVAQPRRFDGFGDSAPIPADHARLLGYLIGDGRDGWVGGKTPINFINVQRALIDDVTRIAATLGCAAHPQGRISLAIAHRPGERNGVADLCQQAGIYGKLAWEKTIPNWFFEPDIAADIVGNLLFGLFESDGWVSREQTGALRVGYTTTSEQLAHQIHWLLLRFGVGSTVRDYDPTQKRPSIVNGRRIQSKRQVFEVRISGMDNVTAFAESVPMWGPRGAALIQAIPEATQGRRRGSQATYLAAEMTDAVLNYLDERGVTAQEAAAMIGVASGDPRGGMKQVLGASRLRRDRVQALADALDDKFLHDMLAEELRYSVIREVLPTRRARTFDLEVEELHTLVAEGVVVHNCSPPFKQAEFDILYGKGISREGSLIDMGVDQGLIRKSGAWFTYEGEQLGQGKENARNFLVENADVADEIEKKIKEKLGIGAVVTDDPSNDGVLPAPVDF

[22] = biological target: T6, Replicative DNA helicase DnaB (Mycobacterium tuberculosis, UniProt P9WMR3); assay: DnaB intein splicing inhibitors, dose response, biochemical, cell-free fluorescence (AID 449749); format: functional
T6 sequence (P9WMR3 whole entry): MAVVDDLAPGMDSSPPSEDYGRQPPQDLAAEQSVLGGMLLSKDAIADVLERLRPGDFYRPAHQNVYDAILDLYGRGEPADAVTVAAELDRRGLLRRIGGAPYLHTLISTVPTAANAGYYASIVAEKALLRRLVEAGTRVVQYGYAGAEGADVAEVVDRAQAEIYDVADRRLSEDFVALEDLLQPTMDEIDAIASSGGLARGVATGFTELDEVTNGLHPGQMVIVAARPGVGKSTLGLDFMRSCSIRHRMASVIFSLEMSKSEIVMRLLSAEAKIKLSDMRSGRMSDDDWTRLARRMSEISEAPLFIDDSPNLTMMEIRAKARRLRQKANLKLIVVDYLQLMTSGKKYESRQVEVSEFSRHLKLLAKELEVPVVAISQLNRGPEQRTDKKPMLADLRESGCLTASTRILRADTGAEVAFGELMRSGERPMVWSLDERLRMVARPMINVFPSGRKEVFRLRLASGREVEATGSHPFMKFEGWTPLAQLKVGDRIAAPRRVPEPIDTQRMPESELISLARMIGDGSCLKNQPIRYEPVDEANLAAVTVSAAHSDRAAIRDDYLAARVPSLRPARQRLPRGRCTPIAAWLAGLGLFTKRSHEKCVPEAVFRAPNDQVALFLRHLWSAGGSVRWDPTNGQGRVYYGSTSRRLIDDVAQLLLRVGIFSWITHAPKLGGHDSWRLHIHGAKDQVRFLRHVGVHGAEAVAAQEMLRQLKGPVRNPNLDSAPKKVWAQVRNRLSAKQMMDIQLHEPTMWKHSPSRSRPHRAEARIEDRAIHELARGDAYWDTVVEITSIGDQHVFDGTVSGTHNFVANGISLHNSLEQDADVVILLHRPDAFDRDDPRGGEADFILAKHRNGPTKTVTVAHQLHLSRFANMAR

[23] = Trypanosoma cruzi growth suppression in host cells – NIH3T3 host cells, beta-gal luminescence, confirmation (AID 2044); format: functional, cell-based;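 note: intracellular parasites grown in NIH/3T3 mouse fibroblasts as host cells; luminescent beta-galactosidase reporter signal from transgenic T. cruzi replicating inside host cells; inhibitors lower the luminescence signal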
Paired box protein Pax-8 = Paired box protein Pax-8 (Homo sapiens, UniProt Q06710); assay: PAX8 transcriptional activity inhibition in RMG-I – RMG-I cells, luciferase, cherry-pick, dose response (AID 687027); format: functional, cell-based;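 note: luciferase reporter driven by Pax8 target thyroperoxidase promoter measured by SteadyGlo luminescence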
Paired box protein Pax-8, sequence (Q06710 whole entry): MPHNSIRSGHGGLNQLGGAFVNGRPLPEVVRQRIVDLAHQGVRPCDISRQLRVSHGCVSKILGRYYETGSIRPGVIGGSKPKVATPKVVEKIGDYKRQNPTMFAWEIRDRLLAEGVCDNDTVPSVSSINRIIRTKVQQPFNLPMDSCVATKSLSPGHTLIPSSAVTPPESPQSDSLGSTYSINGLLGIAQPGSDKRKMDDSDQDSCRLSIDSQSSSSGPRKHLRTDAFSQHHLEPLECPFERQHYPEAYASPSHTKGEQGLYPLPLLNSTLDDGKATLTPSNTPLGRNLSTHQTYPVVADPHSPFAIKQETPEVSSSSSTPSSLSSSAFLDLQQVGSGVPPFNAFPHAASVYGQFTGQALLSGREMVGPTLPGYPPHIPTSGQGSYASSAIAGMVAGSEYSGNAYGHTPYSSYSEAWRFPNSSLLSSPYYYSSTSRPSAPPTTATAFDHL

fMet-Leu-Phe receptor, sequence (P21462 whole entry): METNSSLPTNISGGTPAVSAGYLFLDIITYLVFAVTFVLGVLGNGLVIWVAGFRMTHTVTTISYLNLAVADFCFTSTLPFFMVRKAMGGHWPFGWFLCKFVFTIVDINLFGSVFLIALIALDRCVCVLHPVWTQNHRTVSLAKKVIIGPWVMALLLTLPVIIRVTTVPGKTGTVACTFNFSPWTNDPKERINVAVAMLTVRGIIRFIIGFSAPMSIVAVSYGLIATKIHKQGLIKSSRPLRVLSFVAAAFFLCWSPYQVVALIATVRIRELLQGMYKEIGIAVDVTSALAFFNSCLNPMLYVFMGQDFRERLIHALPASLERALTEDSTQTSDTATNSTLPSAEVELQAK
T1 sequence (P65502 whole entry): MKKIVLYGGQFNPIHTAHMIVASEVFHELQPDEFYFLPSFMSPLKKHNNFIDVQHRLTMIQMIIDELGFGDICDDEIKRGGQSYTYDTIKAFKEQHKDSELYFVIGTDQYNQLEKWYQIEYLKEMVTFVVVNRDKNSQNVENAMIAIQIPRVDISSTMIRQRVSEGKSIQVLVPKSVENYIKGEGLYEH
Endoplasmic reticulum aminopeptidase 1, sequence (Q9NZ08 whole entry): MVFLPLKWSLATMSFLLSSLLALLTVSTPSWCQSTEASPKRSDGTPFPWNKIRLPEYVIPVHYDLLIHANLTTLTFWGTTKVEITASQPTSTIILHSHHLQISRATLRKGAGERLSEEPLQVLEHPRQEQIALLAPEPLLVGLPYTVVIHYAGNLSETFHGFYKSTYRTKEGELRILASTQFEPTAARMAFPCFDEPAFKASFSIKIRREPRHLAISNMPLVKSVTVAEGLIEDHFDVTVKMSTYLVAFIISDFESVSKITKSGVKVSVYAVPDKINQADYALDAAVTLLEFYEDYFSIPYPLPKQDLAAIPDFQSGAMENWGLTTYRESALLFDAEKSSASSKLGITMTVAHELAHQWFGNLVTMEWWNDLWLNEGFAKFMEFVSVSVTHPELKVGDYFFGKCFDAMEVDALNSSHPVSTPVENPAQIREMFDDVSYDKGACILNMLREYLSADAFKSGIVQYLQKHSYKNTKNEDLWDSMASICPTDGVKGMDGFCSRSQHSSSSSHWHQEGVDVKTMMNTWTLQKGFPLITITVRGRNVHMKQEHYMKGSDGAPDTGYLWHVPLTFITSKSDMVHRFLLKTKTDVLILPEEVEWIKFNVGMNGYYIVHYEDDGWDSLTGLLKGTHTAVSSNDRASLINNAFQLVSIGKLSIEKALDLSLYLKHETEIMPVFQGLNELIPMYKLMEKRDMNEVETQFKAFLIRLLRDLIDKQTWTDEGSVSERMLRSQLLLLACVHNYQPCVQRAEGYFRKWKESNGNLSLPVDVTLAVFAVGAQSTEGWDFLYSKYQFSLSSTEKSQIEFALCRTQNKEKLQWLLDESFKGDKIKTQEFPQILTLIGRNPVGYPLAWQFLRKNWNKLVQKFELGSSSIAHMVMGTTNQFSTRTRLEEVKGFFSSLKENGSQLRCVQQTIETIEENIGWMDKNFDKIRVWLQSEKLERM
COUP transcription factor 2, sequence (P24468 whole entry): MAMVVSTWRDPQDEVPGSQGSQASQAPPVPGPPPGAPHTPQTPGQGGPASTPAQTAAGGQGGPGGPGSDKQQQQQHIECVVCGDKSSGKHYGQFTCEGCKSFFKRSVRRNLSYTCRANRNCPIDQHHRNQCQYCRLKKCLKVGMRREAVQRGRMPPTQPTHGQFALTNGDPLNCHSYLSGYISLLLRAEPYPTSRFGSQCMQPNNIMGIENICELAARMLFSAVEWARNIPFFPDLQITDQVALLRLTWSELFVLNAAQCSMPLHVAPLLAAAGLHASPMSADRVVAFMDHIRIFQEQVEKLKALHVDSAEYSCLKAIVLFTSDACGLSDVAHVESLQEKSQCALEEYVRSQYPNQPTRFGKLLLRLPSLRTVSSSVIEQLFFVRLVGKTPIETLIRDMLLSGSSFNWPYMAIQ
Disintegrin and metalloproteinase domain-containing protein 17, sequence (P78536 whole entry, the tested form may be a part): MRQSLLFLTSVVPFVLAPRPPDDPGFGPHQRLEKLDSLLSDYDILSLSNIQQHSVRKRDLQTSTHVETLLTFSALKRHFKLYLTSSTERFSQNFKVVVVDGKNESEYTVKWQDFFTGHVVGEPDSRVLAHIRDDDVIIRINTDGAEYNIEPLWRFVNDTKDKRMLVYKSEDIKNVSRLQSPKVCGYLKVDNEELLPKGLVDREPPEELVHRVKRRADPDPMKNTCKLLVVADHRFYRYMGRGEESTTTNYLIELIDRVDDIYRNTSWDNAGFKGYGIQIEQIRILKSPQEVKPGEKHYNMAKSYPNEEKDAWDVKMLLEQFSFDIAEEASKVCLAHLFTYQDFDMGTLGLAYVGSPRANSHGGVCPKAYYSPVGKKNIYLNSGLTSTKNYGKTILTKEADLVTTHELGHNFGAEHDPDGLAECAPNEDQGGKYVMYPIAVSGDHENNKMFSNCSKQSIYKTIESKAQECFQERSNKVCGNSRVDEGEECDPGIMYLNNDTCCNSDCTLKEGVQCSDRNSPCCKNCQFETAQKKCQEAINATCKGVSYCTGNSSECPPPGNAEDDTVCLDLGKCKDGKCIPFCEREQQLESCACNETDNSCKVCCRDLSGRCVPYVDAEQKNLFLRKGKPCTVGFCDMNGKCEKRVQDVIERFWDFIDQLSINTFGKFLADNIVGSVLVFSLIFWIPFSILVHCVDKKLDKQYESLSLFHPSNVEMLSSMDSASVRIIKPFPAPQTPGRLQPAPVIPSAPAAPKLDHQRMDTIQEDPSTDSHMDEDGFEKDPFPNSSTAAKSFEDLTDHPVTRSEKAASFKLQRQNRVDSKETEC
5-hydroxytryptamine receptor 2A, sequence (P35363 whole entry): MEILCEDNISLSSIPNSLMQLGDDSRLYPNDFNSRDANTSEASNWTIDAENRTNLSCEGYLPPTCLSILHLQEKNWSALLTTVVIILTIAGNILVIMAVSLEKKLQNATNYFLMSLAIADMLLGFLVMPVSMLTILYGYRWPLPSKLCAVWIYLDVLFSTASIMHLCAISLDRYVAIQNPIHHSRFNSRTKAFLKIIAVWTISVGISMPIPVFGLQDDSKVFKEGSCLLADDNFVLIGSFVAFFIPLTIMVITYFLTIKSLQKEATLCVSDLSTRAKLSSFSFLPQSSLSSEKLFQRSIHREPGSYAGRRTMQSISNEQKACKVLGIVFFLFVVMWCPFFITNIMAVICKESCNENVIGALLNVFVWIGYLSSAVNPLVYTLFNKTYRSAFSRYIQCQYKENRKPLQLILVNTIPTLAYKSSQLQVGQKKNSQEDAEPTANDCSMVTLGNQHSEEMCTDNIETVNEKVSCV
Mu-type opioid receptor, sequence (P35372 whole entry): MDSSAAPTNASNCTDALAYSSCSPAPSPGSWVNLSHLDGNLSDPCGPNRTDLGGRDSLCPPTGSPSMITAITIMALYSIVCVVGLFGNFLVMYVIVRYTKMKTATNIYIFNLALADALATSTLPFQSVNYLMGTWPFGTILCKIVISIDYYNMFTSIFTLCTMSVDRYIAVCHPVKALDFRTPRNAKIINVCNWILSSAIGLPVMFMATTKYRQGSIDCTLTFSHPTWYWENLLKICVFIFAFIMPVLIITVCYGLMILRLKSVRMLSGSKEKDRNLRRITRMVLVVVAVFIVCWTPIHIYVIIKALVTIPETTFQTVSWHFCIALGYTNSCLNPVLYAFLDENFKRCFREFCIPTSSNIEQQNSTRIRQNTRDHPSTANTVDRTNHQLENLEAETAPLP
Induced myeloid leukemia cell differentiation protein Mcl-1, sequence (Q07820 whole entry): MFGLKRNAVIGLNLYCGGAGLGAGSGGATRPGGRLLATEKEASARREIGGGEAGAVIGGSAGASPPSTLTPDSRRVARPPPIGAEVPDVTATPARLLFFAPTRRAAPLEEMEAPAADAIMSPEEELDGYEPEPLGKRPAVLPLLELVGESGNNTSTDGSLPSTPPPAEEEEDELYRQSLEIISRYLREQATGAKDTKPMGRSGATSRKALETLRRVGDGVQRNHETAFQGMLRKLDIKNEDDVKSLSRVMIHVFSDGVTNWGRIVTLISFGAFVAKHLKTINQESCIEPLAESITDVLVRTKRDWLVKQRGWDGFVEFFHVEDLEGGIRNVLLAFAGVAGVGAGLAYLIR

## NC(=O)[C@H]1CC2(CC(c3cccc(NC(=O)COc4ccc(Cl)cc4)c3)=NO2)CN1C(=O)Cc1ccc([N+](=O)[O-])cc1 (some centres undefined)
[1]
  IC50: 5.32 µM (active)

## O=C(NNC(=O)c1cc(-c2ccc(Cl)cc2)nc2ccccc12)c1csc(N2CCOCC2)n1
[2]
  IC50: 20.8 µM (active)
[3]
  EC50: > 150 µM (inactive)
[4]
  IC50: > 69.5 µM (inactive)
Streptococcus
  EC50: 76.8 µM (active)
Streptokinase A
  EC50: > 150 µM (not active)
[5]
  IC50: 58 µM (active)
[6]
  EC50: 20 µM (active)
[7]
  EC50: 0.775 µM (active)

## Cc1cccc(/C=C\c2nc(O)c3ccccc3n2)c1
[8]
  EC50: > 67.5 µM (inactive)

## c1c2c(cc3sc(N4CCCCC4)nc13)OCCO2
[9]
  AC50: 13.6 µM (active)
[10]
  EC50: > 120 µM (not active)
[11]
  AC50: 1.58 µM (active)
[12]
  EC50: 11.5 µM (active)
[13]
  AC50: 32.9 µM (active)
[14]
  EC50: 8.9 µM (active)
[15]
  AC50: 1.97 µM (active)
[16]
  AC50: 30.7 µM (active)
[17]
  EC50: 8.83 µM (active)

## CCOC(=O)c1csc(-c2sccc2Br)n1
[8]
  EC50: > 67.6 µM (inactive)

## COc1ccc(Cl)cc1-n1c(=S)sc2c(O)nc(SCC(=O)NCC3CCCO3)nc21 (centres undefined)
fMet-Leu-Phe receptor
  Ki: 9.3 µM (active)

## COCC(=O)N1[C@@H]2Cn3c(ccc(/C=C/c4ccccc4)c3=O)[C@H]1[C@@H](C(=O)N1CCOCC1)[C@@H]2CO
[18]
  AC50: 6.74 µM (active)

## O=C(NCCc1ccncc1)[C@H]1N[C@H]2c3ccc(/C=C/c4ccccc4)c(=O)n3C[C@H]2[C@@H]1CO
[18]
  AC50: 14.1 µM (active)

## Cc1cc(N/N=C/c2ccc(O)c(C)c2O)nc(-c2ccccc2O)n1
[10]
  EC50: > 60 µM (not active)
[19]
  EC50: 7.6 µM (active)
[20]
  IC50: 3.3 µM (active)
[12]
  EC50: 3.71 µM (active)
Mu-type opioid receptor
  EC50: 92.5 µM (inactive)
Streptococcus
  EC50: 8.71 µM (active)
[21]
  AC50: 14.1 µM (active)
Streptokinase A
  EC50: > 150 µM (not active)
[14]
  EC50: 13.1 µM (active)
Protein RecA
  EC50: > 380 µM (inconclusive)
[22]
  AC50: > 380 µM (inactive)
[6]
  EC50: 4.48 µM (active)
[23]
  EC50: 1.1 µM (active)
Paired box protein Pax-8
  AC50: 4.54 µM (active)
[17]
  EC50: > 120 µM (not active)

## CC1(C)S[C@@H]2[C@H](NC(=O)C(C(=O)O)c3ccccc3)C(=O)N2[C@H]1C(=O)O (some centres undefined) [CARBENICILLIN DISODIUM]
fMet-Leu-Phe receptor
  Ki: > 66.7 µM (inactive)
